Data: ChEMBL document CHEMBL1255181, “Synthesis and in vitro evaluation of N-alkyl-7-methoxytacrine hydrochlorides as potential cholinesterase inhibitors in Alzheimer disease” (Bioorg Med Chem Lett, 2010)
Activity calls are given as the source filed them. The calls are words filed in the database; no cut-off is given here.

Experiments:
Acetylcholinesterase = Acetylcholinesterase (Homo sapiens, UniProt P22303)
Description: Inhibition of human recombinant AChE after 5 mins

Cholinesterase [1] = biological target: T1, Cholinesterase (Homo sapiens, UniProt P06276)
T1 sequence (P06276 whole entry): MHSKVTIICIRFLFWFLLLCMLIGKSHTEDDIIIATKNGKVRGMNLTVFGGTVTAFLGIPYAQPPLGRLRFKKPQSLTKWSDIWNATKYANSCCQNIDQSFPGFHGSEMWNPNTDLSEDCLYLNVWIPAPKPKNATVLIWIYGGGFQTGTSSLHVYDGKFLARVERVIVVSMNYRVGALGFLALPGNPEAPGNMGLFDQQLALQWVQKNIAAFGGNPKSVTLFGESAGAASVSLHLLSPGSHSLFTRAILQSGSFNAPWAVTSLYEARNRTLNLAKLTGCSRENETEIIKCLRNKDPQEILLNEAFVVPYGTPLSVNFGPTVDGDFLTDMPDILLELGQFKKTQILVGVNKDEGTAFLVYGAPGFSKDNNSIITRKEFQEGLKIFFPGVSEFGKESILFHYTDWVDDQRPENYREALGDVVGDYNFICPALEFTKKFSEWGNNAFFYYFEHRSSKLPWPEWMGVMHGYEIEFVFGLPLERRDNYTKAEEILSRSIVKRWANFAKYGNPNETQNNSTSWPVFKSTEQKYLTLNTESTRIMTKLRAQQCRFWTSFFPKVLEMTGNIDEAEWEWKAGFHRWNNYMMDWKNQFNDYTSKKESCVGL
Description: Inhibition of human plasmatic BChE after 5 mins

Cholinesterase [2] = biological target: T1, Cholinesterase; test: Inhibition of human plasmatic BChE at 1 mM to 0.1 nM after 5 mins; format: cell-free; conditions: Plasma

Acetylcholinesterase, sequence (P22303 whole entry): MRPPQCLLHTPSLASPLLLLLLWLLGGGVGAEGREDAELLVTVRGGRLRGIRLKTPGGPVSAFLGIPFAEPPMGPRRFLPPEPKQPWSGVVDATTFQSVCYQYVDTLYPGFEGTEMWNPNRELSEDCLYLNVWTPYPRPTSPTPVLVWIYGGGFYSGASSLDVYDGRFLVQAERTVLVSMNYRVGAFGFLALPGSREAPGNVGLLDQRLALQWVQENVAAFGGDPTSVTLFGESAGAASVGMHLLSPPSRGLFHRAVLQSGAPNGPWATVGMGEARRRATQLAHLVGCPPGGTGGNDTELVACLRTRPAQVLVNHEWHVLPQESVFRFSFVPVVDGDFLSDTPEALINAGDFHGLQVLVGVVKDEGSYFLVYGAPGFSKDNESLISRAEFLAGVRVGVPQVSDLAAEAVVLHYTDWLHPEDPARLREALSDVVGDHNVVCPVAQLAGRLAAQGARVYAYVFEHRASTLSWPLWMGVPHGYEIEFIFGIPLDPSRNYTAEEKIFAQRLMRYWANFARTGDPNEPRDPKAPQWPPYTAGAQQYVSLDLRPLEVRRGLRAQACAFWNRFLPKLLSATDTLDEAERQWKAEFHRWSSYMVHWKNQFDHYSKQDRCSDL

SMILES	IC50 (Acetylcholinesterase) [µM]	IC50 (Cholinesterase [1]) [µM]	inhibition (Cholinesterase [2])
CCCCCNc1c2c(nc3ccc(OC)cc13)CCCC2	6.7	16	
CCCCCCCCCCCCNc1c2c(nc3ccc(OC)cc13)CCCC2	1		inactive
CCCNc1c2c(nc3ccc(OC)cc13)CCCC2	9.2	70	
CCNc1c2c(nc3ccc(OC)cc13)CCCC2	66	97	
CCCCCCCCCCCCCNc1c2c(nc3ccc(OC)cc13)CCCC2	100		inactive
CCCCCCCCNc1c2c(nc3ccc(OC)cc13)CCCC2	0.36	0.12	
CCCCCCCCCCCCCCCNc1c2c(nc3ccc(OC)cc13)CCCC2			inactive
CCCCCCCNc1c2c(nc3ccc(OC)cc13)CCCC2	0.27	0.04	
CCCCCCCCCCNc1c2c(nc3ccc(OC)cc13)CCCC2			inactive
CCCCNc1c2c(nc3ccc(OC)cc13)CCCC2	21	64	
CCCCCCNc1c2c(nc3ccc(OC)cc13)CCCC2	0.1	1	
CCCCCCCCCCCNc1c2c(nc3ccc(OC)cc13)CCCC2			inactive
CCCCCCCCCNc1c2c(nc3ccc(OC)cc13)CCCC2	1.6	0.36	
CCCCCCCCCCCCCCNc1c2c(nc3ccc(OC)cc13)CCCC2	46		inactive
